Data as given in patent publication US20140093555A1, “PATCH PREPARATION CONTAINING AMINE OXIDE” (Nitto Denko Corporation, priority 2012, published 2014).

Test system: skin isolated from a hairless mouse
Assay: Skin permeability test (patch on isolated hairless mouse skin, permeation cell, PBS(-) receptor, HPLC)
Type: in vitro ADME
Settings: statement in words, Tables 3 and 4
Protocol: To examine transdermal absorbability of the drug, the obtained patch preparation was subjected to a skin permeability test.
A patch preparation was cut into a circle having a diameter of 6 mmφ, adhered to the stratum corneum side of a skin isolated from a hairless mouse, mounted on a cell for skin permeation experiment (effective area 9 mmφ) such that the dermic layer side was a receptor phase, and a skin permeation experiment was conducted. As a receptor solution, a deaerated PBS(−) solution (phosphate buffered saline) was used.

skin permeability of the drug: low skin permeability
SMILES: CCOC(=O)C1=C(COCCN)NC(C)=C(C(=O)OC)C1c1ccccc1Cl (stereo not shown) [amlodipine besilate]
